Here are results for two compounds from US5359121A, “Glycine derivative monosodium salt tetrahydrate” (Ono Pharmaceutical Co., Ltd., priority 1991, dated 1994).

Data set [1] is described as follows: Experiment of hygroscopicity. It counts as physicochemical. The following applies: exposure to air / 25° C., humidity of 75%. The procedure:
The hygroscopicity of each compound was measured by the ratio of its weight to lapse of time.

A short description of data set [2]: Toxicity.

Turning to `CC(C)(C)C(=O)Oc1ccc(S(=O)(=O)Nc2ccccc2C(=O)NCC(=O)[O-])cc1.O.O.O.O.[Na+]` [the present invention compound, N-[o-(p-pivaloyloxybenzenesulfonylamino)benzoyl]glycine monosodium salt tetrahydrate], the “hygroscopicity (result in words)” value in data set [1] is given as “no change of its weight”. Besides, the toxicity result in data set [2] is “very low”.
As to `CC(C)(C)C(=O)Oc1ccc(S(=O)(=O)Nc2ccccc2C(=O)NCC(=O)[O-])cc1.[Na+]` [the comparison compound, N-[o-(p-pivaloyloxybenzenesulfonylamino)benzoyl]glycine monosodium salt], the “hygroscopicity (result in words)” value in data set [1] (listed as the monosodium salt of the compound of the formula (II), monosodium salt) is reported as “hygroscopic”; in data set [1] (monosodium salt), “increased its weight with lapse of time”.
